The values that follow come from publication PMC5458555, “Conformational dynamics of dynamin-like MxA revealed by single-molecule FRET” (Nature Communications, 2017).

For assay [1], the target named is T1, MxA^MO2 (Homo sapiens, UniProt P20591, A149C/C322K/C336Q/C42S/C52S/M527D/S634C).
T1 construct: gene MX1; monomeric full-length-type MxA (M527D) with solvent-exposed cysteines replaced; N-terminal His6-PreScission tag cut, E. coli Rosetta (DE3); SEC peak ~70 kDa
T1 sequence (P20591 1-662 C42S/C52S/A149C/C322K/C336Q/M527D/S634C): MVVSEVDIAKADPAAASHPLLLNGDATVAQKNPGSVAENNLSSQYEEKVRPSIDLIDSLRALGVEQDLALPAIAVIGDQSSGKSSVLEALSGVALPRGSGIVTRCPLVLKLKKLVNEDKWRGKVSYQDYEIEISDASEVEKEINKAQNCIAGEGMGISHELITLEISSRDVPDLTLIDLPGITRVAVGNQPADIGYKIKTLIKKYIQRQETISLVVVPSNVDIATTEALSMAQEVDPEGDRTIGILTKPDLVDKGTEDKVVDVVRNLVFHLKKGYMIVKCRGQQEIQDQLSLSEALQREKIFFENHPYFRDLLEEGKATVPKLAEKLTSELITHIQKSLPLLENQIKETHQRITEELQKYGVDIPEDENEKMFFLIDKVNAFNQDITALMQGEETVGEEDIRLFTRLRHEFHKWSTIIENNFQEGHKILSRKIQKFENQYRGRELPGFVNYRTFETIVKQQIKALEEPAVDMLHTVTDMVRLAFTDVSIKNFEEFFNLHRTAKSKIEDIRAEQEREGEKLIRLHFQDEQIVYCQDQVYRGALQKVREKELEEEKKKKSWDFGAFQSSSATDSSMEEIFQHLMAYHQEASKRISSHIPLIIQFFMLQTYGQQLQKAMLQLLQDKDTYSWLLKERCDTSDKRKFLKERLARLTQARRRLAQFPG
The assay is described as follows: isothermal titration calorimetry. Conditions: read-out: equilibrium dissociation constant. It counts as binding. How it is done: (§1) isothermal titration calorimetry on MxA^MO2 | The equilibrium dissociation constants for MxA^MO2-AS and MxA^MO2-RR to GDP and GMPPCP were determined
A general note: In ITC the heat of successive injections is recorded.

Assay [2] addresses T2, MxA^MO2 (Homo sapiens, UniProt P20591, C322K/C336Q/C42S/C52S/M527D/R352C/R500C).
T2 construct: gene MX1; monomeric full-length-type MxA (M527D) with solvent-exposed cysteines replaced; N-terminal His6-PreScission tag cut, E. coli Rosetta (DE3); SEC peak ~70 kDa
T2 sequence (P20591 1-662 C42S/C52S/C322K/C336Q/R352C/R500C/M527D): T1 sequence (P20591 1-662 C42S/C52S/A149C/C322K/C336Q/M527D/S634C) with C149A, R352C, R500C, C634S
The assay is described as follows: isothermal titration calorimetry. It counts as binding. The following applies: read-out: equilibrium dissociation constant. How it is done: as §1

Numbering of substitutions follows the chain as printed.

On to `Nc1nc(O)c2ncn([C@@H]3O[C@H](COP(=O)(O)OP(=O)(O)C[P+]([O-])(O)O)[C@@H](O)[C@H]3O)c2n1` [GMPPCP, guanosine-5′-[(β,γ)-methyleno]triphosphate], for which the figures for the Kd in assay [1] and in assay [2] were 30 ± 0.003 µM and 14.7 ± 0.13 µM, respectively.

For the molecule `Nc1nc2c(ncn2[C@@H]2O[C@H](COP(=O)(O)OP(=O)(O)O)[C@@H](O)[C@H]2O)c(=O)[nH]1` [GDP], the Kd was 42.6 ± 0.14 µM in assay [1] and 26.3 ± 0.03 µM in assay [2].
